# Experimental data taken from PMC5885141 (Molecular imaging and biology : MIB : the official …, 2014).
# IR800 = IRDye800CW
# Assays:
# GRPr and NMB-R = conditions: with or without a chelated metal ion; same assay as in Fig. 2; ref [31]; cited from earlier work
# PC-3 cells = experiment: Direct binding assay in PC-3 cells by fluorescence microscopy; format: cell-based, human; conditions: 2 μM, 2 h incubation
Substance,IC50 (GRPr and NMB-R),Direct binding to PC-3 cells (fluorescence microscopy) (PC-3 cells)
DO3A-CH2CO-G-ABz4-QWAVGHLM-NH2 [AMBA],2 to 5 nM,
IR800-GSG-t-BBN: IR800-linker-QWAVGHLM-NH2 with linker = GSG (IR800-GSGQWAVGHLM-NH2),,bound to PC-3 cells to widely different extents
